Measured values: US20140343000A1 (priority 2011, published 2014)
Structures can show the parent of a compound that is named as a salt.

These compounds were tested on recombinant NL4-3 virus (Renilla luciferase in nef, Gag P373S; NLRluc) in MT-2 cells (assay: whole plant or invertebrate). Conditions: Renilla, NL43, luciferase activity in cells infected for 4-5 days with NLRluc recombinants, serial dilutions of inhibitor; class symbols (key in Table 1); read-out: EC50.
Format: cell-based, HIV
Method in brief: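 Virus from 293T transfection, titered in MT-2 by luciferase. MT-2 (RPMI, 10% HI-FBS) infected ± inhibitor serial dilutions, 4-5 d. Readout: Dual Luciferase premix (lysis:reagent:Stop & Glo 2:1:1), immediate luminescence.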
`C=C(C)[C@@H]1CC[C@]2(NC(=O)N[C@H](C)C(=O)O)CC[C@]3(C)[C@H](CC[C@@H]4[C@@]5(C)CC=C(c6ccc(C(=O)O)cc6)C(C)(C)[C@@H]5CC[C@]43C)[C@@H]12` [Example 19, 4-((1R,3aS,5aR,5bR,7aR,11aS,11bR,13aR,13bR)-3a-(3-((R)-1-carboxyethyl)ureido)-5a,5b,8,8,11a-pentamethyl-1-(prop-1-en-2-yl)-2,3,3a,4,5,5a,5b,6,7,7a,8,11,11a,11b,12,13,13a,13b-octadecahydro-1H-cyclopenta[a]chrysen-9-yl)benzoic acid] was tested, and the EC50 was < 100 nM.
For `C=C(C)[C@@H]1CC[C@]2(NC(=O)Cc3ncccn3)CC[C@]3(C)[C@H](CC[C@@H]4[C@@]5(C)CC=C(c6ccc(C(=O)O)cc6)C(C)(C)[C@@H]5CC[C@]43C)[C@@H]12` [Example 126, 4-((1R,3aS,5aR,5bR,7aR,11aS,11bR,13aR,13bR)-5a,5b,8,8,11a-pentamethyl-1-(prop-1-en-2-yl)-3a-(2-(pyrimidin-2-yl)acetamido)-2,3,3a,4,5,5a,5b,6,7,7a,8,11,11a,11b,12,13,13a,13b-octadecahydro-1H-cyclopenta[a]chrysen-9-yl)benzoic acid], the EC50 was < 100 nM.
In the case of `C=C(C)[C@@H]1CC[C@]2(NCCN3CCN(C(=O)CC4CCCCC4)CC3)CC[C@]3(C)[C@H](CC[C@@H]4[C@@]5(C)CC=C(c6ccc(C(=O)O)cc6)C(C)(C)[C@@H]5CC[C@]43C)[C@@H]12` [Example B57, 4-((1R,3aS,5aR,5bR,7aR,11aS,11bR,13aR,13bR)-3a-((2-(4-(2-cyclohexylacetyl)piperazin-1-yl)ethyl)amino)-5a,5b,8,8,11a-pentamethyl-1-(prop-1-en-2-yl)-2,3,3a,4,5,5a,5b,6,7,7a,8,11,11a,11b,12,13,13a,13b-octadecahydro-1H-cyclopenta[a]chrysen-9-yl)benzoic acid], the EC50 is reported as < 100 nM.
`C=C(C)[C@@H]1CC[C@]2(NC(=O)NCCCN3CCOCC3)CC[C@]3(C)[C@H](CC[C@@H]4[C@@]5(C)CC=C(c6ccc(C(=O)O)cc6)C(C)(C)[C@@H]5CC[C@]43C)[C@@H]12` [Example 11, 4-((1R,3aS,5aR,5bR,7aR,11aS,11bR,13aR,13bR)-5a,5b,8,8,11a-pentamethyl-3a-(3-(3-morpholinopropyl)ureido)-1-(prop-1-en-2-yl)-2,3,3a,4,5,5a,5b,6,7,7a,8,11,11a,11b,12,13,13a,13b-octadecahydro-1H-cyclopenta[a]chrysen-9-yl)benzoic acid] was tested, and the EC50 was < 100 nM.
For `C=C(C)[C@@H]1CC[C@]2(NCCN3CCN(S(=O)(=O)c4ccc(OC)cc4)CC3)CC[C@]3(C)[C@H](CC[C@@H]4[C@@]5(C)CC=C(c6ccc(C(=O)O)cc6)C(C)(C)[C@@H]5CC[C@]43C)[C@@H]12` [Example B47, 4-((1R,3aS,5aR,5bR,7aR,11aS,11bR,13aR,13bR)-3a-((2-(4-((4-methoxyphenyl)sulfonyl)piperazin-1-yl)ethyl)amino)-5a,5b,8,8,11a-pentamethyl-1-(prop-1-en-2-yl)-2,3,3a,4,5,5a,5b,6,7,7a,8,11,11a,11b,12,13,13a,13b-octadecahydro-1H-cyclopenta[a]chrysen-9-yl)benzoic acid], the EC50 was < 100 nM.
In the case of `C=C(C)[C@@H]1CC[C@]2(NC(=O)N3CCNCC3)CC[C@]3(C)[C@H](CC[C@@H]4[C@@]5(C)CC=C(c6ccc(C(=O)O)cc6)C(C)(C)[C@@H]5CC[C@]43C)[C@@H]12` [Example 45, 4-((1R,3aS,5aR,5bR,7aR,11aS,11bR,13aR,13bR)-5a,5b,8,8,11a-pentamethyl-3a-(piperazine-1-carboxamido)-1-(prop-1-en-2-yl)-2,3,3a,4,5,5a,5b,6,7,7a,8,11,11a,11b,12,13,13a,13b-octadecahydro-1H-cyclopenta[a]chrysen-9-yl)benzoic acid], the EC50 is reported as < 100 nM.
`C=C(C)[C@@H]1CC[C@]2(NC(=O)Cn3cc(-c4ccccc4)cn3)CC[C@]3(C)[C@H](CC[C@@H]4[C@@]5(C)CC=C(c6ccc(C(=O)O)cc6)C(C)(C)[C@@H]5CC[C@]43C)[C@@H]12` [Example 87, 4-((1R,3aS,5aR,5bR,7aR,11aS,11bR,13aR,13bR)-5a,5b,8,8,11a-pentamethyl-3a-(2-(4-phenyl-1H-pyrazol-1-yl)acetamido)-1-(prop-1-en-2-yl)-2,3,3a,4,5,5a,5b,6,7,7a,8,11,11a,11b,12,13,13a,13b-octadecahydro-1H-cyclopenta[a]chrysen-9-yl)benzoic acid] was tested, and the EC50 was < 100 nM.
For `C=C(C)[C@@H]1CC[C@]2(NC(=O)OCCN3CCS(=O)(=O)CC3)CC[C@]3(C)[C@H](CC[C@@H]4[C@@]5(C)CC=C(c6ccc(C(=O)O)cc6)C(C)(C)[C@@H]5CC[C@]43C)[C@@H]12` [Example 71, benzoic acid, 4-[(1R,3aS,5aR,5bR,7aR,11aS,11bR,13aR,13bR)-3a-[[[2-(1,1-dioxido-4-thiomorpholinyl)ethoxy]carbonyl]amino]-2,3,3a,4,5,5a,5b,6,7,7a,8,11,11a,11b,12,13,13a,13b-octadecahydro-5a,5b,8,8,11a-pentamethyl-1-(1-methylethenyl)-1H-cyclopenta[a]chrysen-9-yl]], the EC50 was < 100 nM.
In the case of `C=C(C)[C@@H]1CC[C@]2(NC(=O)Cc3cnccn3)CC[C@]3(C)[C@H](CC[C@@H]4[C@@]5(C)CC=C(c6ccc(C(=O)O)cc6)C(C)(C)[C@@H]5CC[C@]43C)[C@@H]12` [Example 102, 4-((1R,3aS,5aR,5bR,7aR,11aS,11bR,13aR,13bR)-5a,5b,8,8,11a-pentamethyl-1-(prop-1-en-2-yl)-3a-(2-(pyrazin-2-yl)acetamido)-2,3,3a,4,5,5a,5b,6,7,7a,8,11,11a,11b,12,13,13a,13b-octadecahydro-1H-cyclopenta[a]chrysen-9-yl)benzoic acid], the EC50 is reported as < 100 nM.
With `C=C(C)[C@@H]1CC[C@]2(NCC(C)C)CC[C@]3(C)[C@H](CC[C@@H]4[C@@]5(C)CC=C(c6ccc(C(=O)O)cc6)C(C)(C)[C@@H]5CC[C@]43C)[C@@H]12` [Example 181, 4-((1R,3aS,5aR,5bR,7aR,11aS,11bR,13aR,13bR)-3a-(isobutylamino)-5a,5b,8,8,11a-pentamethyl-1-(prop-1-en-2-yl)-2,3,3a,4,5,5a,5b,6,7,7a,8,11,11a,11b,12,13,13a,13b-octadecahydro-1H-cyclopenta[a]chrysen-9-yl)benzoic acid] the EC50 was < 100 nM.
For `C=C(C)[C@@H]1CC[C@]2(NCCN)CC[C@]3(C)[C@H](CC[C@@H]4[C@@]5(C)CC=C(c6ccc(C(=O)O)cc6)C(C)(C)[C@@H]5CC[C@]43C)[C@@H]12` [Example 139, 4-((1R,3aS,5aR,5bR,7aR,11aS,11bR,13aR,13bR)-3a-(2-aminoethylamino)-5a,5b,8,8,11a-pentamethyl-1-(prop-1-en-2-yl)-2,3,3a,4,5,5a,5b,6,7,7a,8,11,11a,11b,12,13,13a,13b-octadecahydro-1H-cyclopenta[a]chrysen-9-yl)benzoic acid], the EC50 was < 100 nM.
`C=C(C)[C@@H]1CC[C@]2(NC(=O)N(C)CCN(C)C)CC[C@]3(C)[C@H](CC[C@@H]4[C@@]5(C)CC=C(c6ccc(C(=O)O)cc6)C(C)(C)[C@@H]5CC[C@]43C)[C@@H]12` [Example 24, 4-((1R,3aS,5aR,5bR,7aR,11aS,11bR,13aR,13bR)-3a-(3-(2-(dimethylamino)ethyl)-3-methylureido)-5a,5b,8,8,11a-pentamethyl-1-(prop-1-en-2-yl)-2,3,3a,4,5,5a,5b,6,7,7a,8,11,11a,11b,12,13,13a,13b-octadecahydro-1H-cyclopenta[a]chrysen-9-yl)benzoic acid] was tested, and the EC50 was < 100 nM.
For `CC(C)[C@@H]1CC[C@]2(NCCN3CCN(S(C)(=O)=O)CC3)CC[C@]3(C)[C@H](CC[C@@H]4[C@@]5(C)CC[C@H](c6ccc(C(=O)O)cc6)C(C)(C)[C@@H]5CC[C@]43C)[C@@H]12` [Example B16, 4-((1S,3aS,5aR,5bR,7aS,9S,11aS,11bR,13aR,13bR)-1-isopropyl-5a,5b,8,8,11a-pentamethyl-3a-((2-(4-(methylsulfonyl)piperazin-1-yl)ethyl)amino)icosahydro-1H-cyclopenta[a]chrysen-9-yl)benzoic acid], the EC50 was < 100 nM.

Same assay, conditions: Renilla, NL43, luciferase activity in cells infected for 4-5 days with NLRluc recombinants, serial dilutions of inhibitor; numeric values; read-out: EC50
For `C=C(C)[C@@H]1CC[C@]2(NC(=O)N(CCN)CCC(=O)O)CC[C@]3(C)[C@H](CC[C@@H]4[C@@]5(C)CC=C(c6ccc(C(=O)O)cc6)C(C)(C)[C@@H]5CC[C@]43C)[C@@H]12` [Example 43, 4-((1R,3aS,5aR,5bR,7aR,11aS,11bR,13aR,13bR)-3a-(3-(2-aminoethyl)-3-(2-carboxyethyl)ureido)-5a,5b,8,8,11a-pentamethyl-1-(prop-1-en-2-yl)-2,3,3a,4,5,5a,5b,6,7,7a,8,11,11a,11b,12,13,13a,13b-octadecahydro-1H-cyclopenta[a]chrysen-9-yl)benzoic acid], the EC50 was 30 nM.
`C=C(C)[C@@H]1CC[C@]2(NC(=O)Cn3ccc4ccccc43)CC[C@]3(C)[C@H](CC[C@@H]4[C@@]5(C)CC=C(c6ccc(C(=O)O)cc6)C(C)(C)[C@@H]5CC[C@]43C)[C@@H]12` [Example 90, 4-((1R,3aS,5aR,5bR,7aR,11aS,11bR,13aR,13bR)-3a-(2-(1H-indol-1-yl)acetamido)-5a,5b,8,8,11a-pentamethyl-1-(prop-1-en-2-yl)-2,3,3a,4,5,5a,5b,6,7,7a,8,11,11a,11b,12,13,13a,13b-octadecahydro-1H-cyclopenta[a]chrysen-9-yl)benzoic acid] was tested, and the EC50 was 20 nM.

Same assay, conditions: luciferase activity in cells infected for 4-5 days with NLRluc recombinants, serial dilutions of inhibitor; class symbols (key in Table 1); read-out: EC50
`C=C(C)[C@@H]1CC[C@]2(NC)CC[C@]3(C)[C@H](CC[C@@H]4[C@@]5(C)CC=C(c6ccc(C(=O)O)cc6)C(C)(C)[C@@H]5CC[C@]43C)[C@@H]12` [Example 176, 4-((1R,3aS,5aR,5bR,7aR,11aS,11bR,13aR,13bR)-5a,5b,8,8,11a-pentamethyl-3a-(methylamino)-1-(prop-1-en-2-yl)-2,3,3a,4,5,5a,5b,6,7,7a,8,11,11a,11b,12,13,13a,13b-octadecahydro-1H-cyclopenta[a]chrysen-9-yl)benzoic acid, HCl] was tested, and the EC50 was < 100 nM.
